The compounds below were run against T1, MRGPRX2 (Homo sapiens, UniProt Q96LB1) (assay: MRGPRX2 reporter cell assay (NFAT-RE luciferase, Substance P stimulation)). Conditions: U2OS cells stably transfected with MRGPRX2 and NFAT-RE luciferase reporter; Substance P at EC80.
T1 sequence (Q96LB1 1-330): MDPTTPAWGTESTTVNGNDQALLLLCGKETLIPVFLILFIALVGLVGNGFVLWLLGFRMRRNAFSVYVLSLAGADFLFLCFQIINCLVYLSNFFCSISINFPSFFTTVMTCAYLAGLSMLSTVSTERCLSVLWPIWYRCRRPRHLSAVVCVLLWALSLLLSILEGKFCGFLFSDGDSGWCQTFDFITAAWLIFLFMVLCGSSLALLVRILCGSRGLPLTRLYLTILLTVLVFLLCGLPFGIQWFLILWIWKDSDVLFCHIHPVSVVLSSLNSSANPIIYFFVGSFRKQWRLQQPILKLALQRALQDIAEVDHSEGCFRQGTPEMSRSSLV
Format: cell-based
Summary of the method: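 U2OS cells stably expressing MRGPRX2 and an NFAT-RE luc2P reporter, pre-incubated 30 min at 37° C with compound (0.5% DMSO), then stimulated with Substance P at EC80 for 6 h. Luminescence after ONE-GLO; percent inhibition fitted by four-parameter logistic to IC50.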

IC50 [µM]	Structure (SMILES)
0.0041	CO[C@]1(C)COc2c(-c3[nH]c4ncccc4c3-c3cn(C)nc3OC(F)F)c(C(F)F)nn2C1 [EX. 435]
0.0026	Cn1cc(-c2c(-c3c(C(F)F)nn4c3OC[C@@H](F)C4)[nH]c3ncccc23)c(C#N)n1 [EX. 449]
0.0019	COC(=O)N[C@]1(C)COc2c(-c3[nH]c4ncccc4c3-c3cccnc3OC(F)F)c(C(F)F)nn2C1 [EX. 492]

Same assay, conditions: U2OS cells stably transfected with MRGPRX2 and NFAT-RE luciferase reporter; Substance P at EC80; class symbols

Structure (SMILES)	IC50 [µM]
Cn1cc(-c2c(-c3c(C(F)F)nn4c3OC[C@@H](O)C4)[nH]c3ncsc23)c(OC(F)F)n1 [EX. 427, (S)-3-(6-(3-(difluoromethoxy)-1-methyl-1H-pyrazol-4-yl)-4H-pyrrolo[2,3-d]thiazol-5-yl)-2-(difluoromethyl)-6,7-dihydro-5H-pyrazolo[5,1-b] [1,3]oxazin-6-ol]	< 0.01
Cn1cc(-c2c(-c3c(C(F)F)nn4c3OC[C@@H](N)C4)[nH]c3ncsc23)c(OC(F)F)n1 [EX. 428, (S)-3-(6-(3-(difluoromethoxy)-1-methyl-1H-pyrazol-4-yl)-4H-pyrrolo[2,3-d]thiazol-5-yl)-2-(difluoromethyl)-6,7-dihydro-5H-pyrazolo[5,1-b] [1,3]oxazin-6-amine]	< 0.01
FC(F)c1nn2c(c1-c1[nH]c3ncccc3c1C1=CCCCC1)OCCC2 [EX. 430]	< 0.01
Cn1cc(-c2c(-c3c(C(F)F)nn4c3OCC4)[nH]c3ncccc23)c(OC(F)F)n1 [EX. 432]	< 0.01
Cc1cc(-c2c(-c3c(C(F)F)nn4c3OCC4)[nH]c3ncccc23)c(C#N)s1 [EX. 433]	< 0.01
CO[C@]1(C)COc2c(-c3[nH]c4ncccc4c3-c3cn(C)nc3OC(F)F)c(C(F)F)nn2C1 [EX. 435]	< 0.01
C[C@@]1(O)COc2c(-c3[nH]c4ncccc4c3-c3cccnc3OC(F)F)c(C3CC3)nn2C1 [EX. 440]	< 0.01
Cc1cc(-c2c(-c3c(C(F)F)nn4c3OC[C@@](C)(O)C4)[nH]c3ncccc23)c(C#N)s1 [EX. 451]	< 0.01
Cc1cc(-c2c(-c3c(C(F)F)nn4c3OCCCC4)[nH]c3ncccc23)c(C#N)s1 [EX. 452]	< 0.01
O[C@@H]1COc2c(-c3[nH]c4ncccc4c3-c3ccsc3Cl)c(C(F)F)nn2C1 [EX. 453]	< 0.01
O[C@@H]1COc2c(-c3[nH]c4ncccc4c3-c3cccnc3OC(F)F)c(C3CC3)nn2C1 [EX. 455]	< 0.01
CS(=O)(=O)N[C@@H]1COc2c(-c3[nH]c4ncccc4c3-c3cccnc3OC(F)F)c(C3CC3)nn2C1 [EX. 456]	< 0.01
Cc1cc(-c2c(-c3c(C4CC4)nn4c3OC[C@@H](NS(C)(=O)=O)C4)[nH]c3ncccc23)c(C#N)s1 [EX. 457]	< 0.01
Cc1cc(-c2c(-c3c(C(F)F)nn4c3OC[C@@H](O)C4)[nH]c3ncccc23)c(C#N)s1 [EX. 458]	< 0.01
Cc1cc(-c2c(-c3c(C)nn4c3OC[C@@H](O)C4)[nH]c3ncccc23)c(C#N)s1 [EX. 459]	< 0.01
Cc1cc(-c2c(-c3c(C4CC4)nn4c3OC[C@@H](O)C4)[nH]c3ncccc23)c(C#N)s1 [EX. 460]	< 0.01
O[C@@H]1COc2c(-c3[nH]c4ncccc4c3-c3csnc3OC(F)F)c(C(F)F)nn2C1 [EX. 461]	< 0.01
O[C@@H]1COc2c(-c3[nH]c4ncccc4c3-c3ccccc3OC(F)(F)F)c(C(F)F)nn2C1 [EX. 464]	< 0.01

Structure (SMILES)	IC50 [µM]
O[C@@H]1COc2c(-c3[nH]c4ncccc4c3-c3ccccc3)c(C(F)F)nn2C1 [EX. 465]	< 0.01
O[C@@H]1COc2c(-c3[nH]c4ncccc4c3-c3cccc(F)c3OC(F)F)c(C(F)F)nn2C1 [EX. 466]	< 0.01
O[C@@H]1COc2c(-c3[nH]c4ncccc4c3-c3ccc(F)cc3OC(F)F)c(C(F)F)nn2C1 [EX. 467]	< 0.01
O[C@@H]1COc2c(-c3[nH]c4ncccc4c3-c3cc(F)ccc3OC(F)F)c(C(F)F)nn2C1 [EX. 468]	< 0.01
O[C@@H]1COc2c(-c3[nH]c4ncccc4c3-c3ccccc3OC(F)F)c(C(F)F)nn2C1 [EX. 469]	< 0.01
Cc1cc(-c2c(-c3c(C(F)F)nn4c3OC[C@@H](O)C4)[nH]c3ncccc23)c(Cl)s1 [EX. 479]	< 0.01
Cc1nn2c(c1-c1[nH]c3ncccc3c1-c1cn(C)nc1OC(F)F)OC[C@@H](O)C2 [EX. 480, (S)-3-(3-(3-(difluoromethoxy)-1-methyl-1H-pyrazol-4-yl)-1 H-pyrrolo[2,3-b]pyridin-2-yl)-2-methyl-6,7-dihydro-5H-pyrazolo[5,1-b] [1,3]oxazin-6-ol]	< 0.01
Cn1cc(-c2c(-c3c(C(F)F)nn4c3OC[C@@](C)(O)C4)[nH]c3ncccc23)c(OC(F)F)n1 [EX. 481]	< 0.01
Cn1cc(-c2c(-c3c(C(F)F)nn4c3OC[C@@](C)(OCC(N)=O)C4)[nH]c3ncccc23)c(OC(F)F)n1 [EX. 482]	< 0.01
COC(=O)N[C@@H]1COc2c(-c3[nH]c4ncccc4c3-c3cn(C)nc3OC(F)F)c(C3CC3)nn2C1 [EX. 483]	< 0.01
Cn1cc(-c2c(-c3c(C4CC4)nn4c3OC[C@@H](NS(C)(=O)=O)C4)[nH]c3ncccc23)c(OC(F)F)n1 [EX. 484]	< 0.01
Cn1cc(-c2c(-c3c(C4CC4)nn4c3OC[C@@H](O)C4)[nH]c3ncccc23)c(OC(F)F)n1 [EX. 485]	< 0.01
CO[C@]1(C)COc2c(-c3[nH]c4ncccc4c3-c3cc(C)sc3C#N)c(C(F)F)nn2C1 [EX. 486, (S)-3-(2-(2-(difluoromethyl)-6-methoxy-6-methyl-6,7-dihydro-5H-pyrazolo[5,1-b] [1,3]oxazin-3-yl)-1H-pyrrolo[2,3-b]pyridin-3-yl)-5-methylthiophene-2-carbonitrile]	< 0.01
FC(F)Oc1cnccc1-c1c(-c2c(C(F)F)nn3c2OCCC3)[nH]c2ncccc12 [EX. 489]	< 0.01
Cn1cc(-c2c(-c3c(C(F)F)nn4c3OC[C@@H](O)C4)[nH]c3ncccc23)c(C#N)n1 [EX. 491, (S)-4-(2-(2-(difluoromethyl)-6-hydroxy-6,7-dihydro-5H-pyrazolo[5,1-b] [1,3]oxazin-3-yl)-1H-pyrrolo[2,3-b]pyridin-3-yl)-1-methyl-1H-pyrazole-3-carbonitrile]	< 0.01
COC(=O)N[C@]1(C)COc2c(-c3[nH]c4ncccc4c3-c3cccnc3OC(F)F)c(C(F)F)nn2C1 [EX. 492]	< 0.01
Cn1cc(-c2c(-c3c(C(F)F)nn4c3OC[C@@](C)(OCCO)C4)[nH]c3ncccc23)c(OC(F)F)n1 [EX. 493]	< 0.01
COC(=O)N[C@@H]1COc2c(-c3[nH]c4ncccc4c3-c3cc(C)sc3C#N)c(C)nn2C1 [EX. 494]	< 0.01

Further lines, results first:

IC50 [µM]	Structure (SMILES)
< 0.01	COc1ncccc1-c1c(-c2c(C(F)F)nn3c2OCCC3)[nH]c2ncccc12 [EX. 429, 2-(difluoromethyl)-3-(3-(2-methoxypyridin-3-yl)-1H-pyrrolo[2,3-b]pyridin-2-yl)-6,7-dihydro-5H-pyrazolo[5,1-b] [1,3]oxazine]
< 0.01	COc1ncc(F)cc1-c1c(-c2c(C(F)F)nn3c2OCCC3)[nH]c2ncccc12 [EX. 431]
< 0.01	Cn1cc(-c2c(-c3c(C(F)F)nn4c3OC[C@@H](F)C4)[nH]c3ncccc23)c(OC(F)F)n1 [EX. 434]
< 0.01	Cc1cc(-c2c(-c3c(C(F)F)nn4c3OC[C@@H](F)C4)[nH]c3ncccc23)c(Cl)s1 [EX. 436]
< 0.01	FC(F)Oc1ncccc1-c1c(-c2c(C(F)F)nn3c2OC[C@@H](F)C3)[nH]c2ncccc12 [EX. 437]
< 0.01	C[C@@]1(O)COc2c(-c3[nH]c4ncccc4c3-c3cccnc3OC(F)F)c(C(F)F)nn2C1 [EX. 438]
< 0.01	CO[C@]1(C)COc2c(-c3[nH]c4ncccc4c3-c3cccnc3OC(F)F)c(C(F)F)nn2C1 [EX. 439]
< 0.01	FC(F)Oc1ncccc1-c1c(-c2c(C(F)F)nn3c2OCCCC3)[nH]c2ncccc12 [EX. 441]
< 0.01	FC(F)Oc1ncccc1-c1c(-c2c(C(F)F)nn3c2OCC3)[nH]c2ncccc12 [EX. 442]
< 0.01	FC(F)Oc1ccccc1-c1c(-c2c(C(F)F)nn3c2OC[C@@H](F)C3)[nH]c2ncccc12 [EX. 444]
< 0.01	FC(F)c1nn2c(c1-c1[nH]c3ncccc3c1-c1ccccc1)OC[C@@H](F)C2 [EX. 445]
< 0.01	COc1ncccc1-c1c(-c2c(C(F)F)nn3c2OC[C@@H](F)C3)[nH]c2ncccc12 [EX. 446]
< 0.01	Fc1ccc(-c2c(-c3c(C(F)F)nn4c3OC[C@@H](F)C4)[nH]c3ncccc23)c(OC(F)F)c1 [EX. 447]
< 0.01	Cn1cc(-c2c(-c3c(C(F)F)nn4c3OC[C@@H](F)C4)[nH]c3ncccc23)c(C#N)n1 [EX. 449]
< 0.01	Cc1cc(-c2c(-c3c(C(F)F)nn4c3OC[C@@H](F)C4)[nH]c3ncccc23)c(C#N)s1 [EX. 450]
< 0.01	O[C@@H]1COc2c(-c3[nH]c4ncccc4c3-c3cccnc3OC(F)F)c(C(F)F)nn2C1 [EX. 454]
< 0.01	COc1ncccc1-c1c(-c2c(C(F)F)nn3c2OC[C@@H](O)C3)[nH]c2ncccc12 [EX. 462]
< 0.01	O[C@@H]1COc2c(-c3[nH]c4ncccc4c3-c3ccncc3OC(F)F)c(C(F)F)nn2C1 [EX. 463]
< 0.01	N#Cc1ncccc1-c1c(-c2c(C(F)F)nn3c2OC[C@@H](O)C3)[nH]c2ncccc12 [EX. 470]
< 0.01	COc1ccc(C#N)c(-c2c(-c3c(C(F)F)nn4c3OC[C@@H](F)C4)[nH]c3ncccc23)c1 [EX. 471]
< 0.01	COc1ncc(F)cc1-c1c(-c2c(C(F)F)nn3c2OC[C@@H](O)C3)[nH]c2ncccc12 [EX. 476]
< 0.01	N#Cc1ncccc1-c1c(-c2c(C(F)F)nn3c2OC[C@@H](O)C3)[nH]c2ncccc12 [EX. 477]
< 0.01	C[C@@]1(N)COc2c(-c3[nH]c4ncccc4c3-c3cccnc3OC(F)F)c(C(F)F)nn2C1 [EX. 490]
< 0.01	OCCO[C@@H]1COc2c(-c3[nH]c4ncccc4c3-c3cccnc3OC(F)F)c(C(F)F)nn2C1 [EX. 495]
